# In US20110311601A1, “ANTIMICROBIAL MEDICAL DEVICES” (priority 2010, published 2011):
# Where no end group is shown, it is not given here.
# Columns and labels:
# Test in all cases: micro-dilution assay (MBC, LD90)
# Format in all cases: cell-based
# [1] = tested on: Morganella morganii RV B4/97
# Method: (§1) The anti-bacterial activity of hβD2 was tested by a micro-dilution assay. Bacteria and fungi were streaked from a glycerol stock onto a Brain Heart Infusion (BHI) agar plate (3.7% w/v BHI Bouillon, 1.5% w/v Agar), grown overnight at 37° C. and 30° C., respectively and subsequently used to inoculate 40 ml of 3.7% w/v BHI Bouillon without any antibiotics in 100 ml flasks. Fresh cells were harvested by centrifugation at 16000 rpm for 10 min and washed twice with 10 mM sodium phosphate buffer, pH 7.2. The optical density was adjusted to 10^4 cells/ml. For anti-bacterial testing hβD2 was incubated in one well of a microtiter plate containing 100 μl of the bacterial suspension. Therefore, ten microlitres of hβD2 solution with a range of final concentrations tested from 0.0125 up to and including 100 mg/l was added to the bacterial suspension and incubated at 37° C. and 30° C., respectively for 2 h before colony forming units were determined. Colony forming units (CFU) were determined after plating 100 μl of a 1:100 dilution of the bacterial suspension on petri dishes with BHI medium and incubating them overnight at 37° C. For every group of the hβD2 added samples and the controls, 5 independent anti-bacterial assays were performed. A control (NC) of bacterial growth was examined for every independent assay. The number of CFU on the control (consisting of a single petri dish) was set to 0% bactericidal activity. The reduction in the CFU resulting from the anti-bacterial activity of hβD2 was related to the absolute CFU of the control within every independent assay. This value, given as a percentage of the bacterial “killing” activity, was used to describe the antibacterial activity. This kind of normalisation of the antibacterial data was performed for every experimental group.
# (§2) The antibacterial activity of hβD2 were given either as minimum bactericidal concentration (MBC), i.e., the minimum concentration of hβD2 in μg/ml which is required to kill 99.9% of the bacteria or fungi or as lethal dose (LD90), i.e., the concentration of hβD2 in μg/ml which is lethal for 90% of bacteria or fungi.
# [2] = tested on: Candida tropicalis ATCC 750
# Method: as §1, §2
# [3] = tested on: Enterobacter cloacae Va 11263/03 (wild-type)
# Method: as §1, §2
# [4] = tested on: Stenotrophomonas maltophilia ATCC 17666
# Method: as §1, §2
# [5] = tested on: Pseudomonas aeruginosa ATCC 39324
# Method: as §1, §2
# [6] = tested on: Streptococcus pyogenes ATCC 12344
# Method: as §1, §2
# [7] = tested on: Enterococcus faecium (VRE) Ulm 68 (wild-type)
# Method: as §1, §2
# [8] = tested on: Pseudomonas aeruginosa CF 509 mr (wild-type)
# Method: as §1, §2
# [9] = tested on: Citrobacter freundii BK 2122/00 (wild-type)
# Method: as §1, §2
# [10] = tested on: Corynebacterium amycolatum RV A2/97
# Method: as §1, §2
# [11] = tested on: Pseudomonas aeruginosa ATCC 11446
# Method: as §1, §2
# [12] = tested on: Cryptococcus neoformans ATCC 62066
# Method: as §1, §2
# [13] = tested on: Acinetobacter haemolyticus ATCC 17906
# Method: as §1, §2
# [14] = tested on: Serratia marcescens NCTC 10211
# Method: as §1, §2
# [15] = tested on: Enterobacter aerogenes Va 12738/03 (wild-type)
# Method: as §1, §2
# [16] = tested on: Eikenella corrodens (wild-type)
# Method: as §1, §2
# [17] = tested on: Acinetobacter johnsonii ATCC 17909
# Method: as §1, §2
# E. coli ATCC 35218 = tested on: E. coli ATCC 35218
# Method: as §1, §2
# [18] = tested on: Streptococcus pneumoniae DSM 11865 (Penr)
# Method: as §1, §2
# [19] = tested on: Candida albicans C.a 46 (wild-type)
# Method: as §1, §2
# [20] = tested on: Issatchenkia orientalis ATCC 6258
# Method: as §1, §2
# [21] = tested on: Staphylococcus epidermidis ATCC 14990
# Method: as §1, §2
# [22] = tested on: Proteus vulgaris Mero 103/067 (wild-type)
# Method: as §1, §2
# [23] = tested on: Actinobacillus actinommycetemcomitans NCTC 10979
# Method: as §1, §2
# [24] = tested on: Candida albicans C.a 39 (wild-type)
# Method: as §1, §2
# [25] = tested on: Pseudomonas aeruginosa CF 453 Va mr (wild-type)
# Method: as §1, §2
substance,measurement,setting,value
"human β-defensin-2 (GIGDPVTCLKSGAICHPVFCPRRYKQIGTCGLPGTKCCKKP; ends and bridges not checked; cysteine pairing not given here) [hβD2, recombinant hβD2]",LD 90 = μg/ml 90% killing,[1],100 µg/mL
same,MBC = μg/ml 99.9% killing,[1],>100 µg/mL
same,LD 90 = μg/ml 90% killing,[2],1.56 µg/mL
same,MBC = μg/ml 99.9% killing,[2],25 µg/mL
same,LD 90 = μg/ml 90% killing,[3],12.5 µg/mL
same,MBC = μg/ml 99.9% killing,[3],50 µg/mL
same,LD 90 = μg/ml 90% killing,[4],6.25 µg/mL
same,MBC = μg/ml 99.9% killing,[4],50 µg/mL
same,LD 90 = μg/ml 90% killing,[5],12.5 µg/mL
same,MBC = μg/ml 99.9% killing,[5],25 µg/mL
same,LD 90 = μg/ml 90% killing,[6],100 µg/mL
same,MBC = μg/ml 99.9% killing,[6],>100 µg/mL
same,LD 90 = μg/ml 90% killing,[7],100 µg/mL
same,MBC = μg/ml 99.9% killing,[7],>100 µg/mL
same,LD 90 = μg/ml 90% killing,[8],12.5 µg/mL
same,MBC = μg/ml 99.9% killing,[8],25 µg/mL
same,LD 90 = μg/ml 90% killing,[9],6.25 µg/mL
same,MBC = μg/ml 99.9% killing,[9],25 µg/mL
same,LD 90 = μg/ml 90% killing,[10],6.25 µg/mL
same,MBC = μg/ml 99.9% killing,[10],25 µg/mL
same,LD 90 = μg/ml 90% killing,[11],12.5 µg/mL
same,MBC = μg/ml 99.9% killing,[11],12.5 µg/mL
same,LD 90 = μg/ml 90% killing,[12],0.78 µg/mL
same,MBC = μg/ml 99.9% killing,[12],12.5 µg/mL
same,LD 90 = μg/ml 90% killing,[13],0.39 µg/mL
same,MBC = μg/ml 99.9% killing,[13],1.56 µg/mL
same,LD 90 = μg/ml 90% killing,[14],50 µg/mL
same,MBC = μg/ml 99.9% killing,[14],100 µg/mL
same,LD 90 = μg/ml 90% killing,[15],6.25 µg/mL
same,MBC = μg/ml 99.9% killing,[15],25 µg/mL
same,LD 90 = μg/ml 90% killing,[16],50 µg/mL
same,MBC = μg/ml 99.9% killing,[16],50 µg/mL
same,LD 90 = μg/ml 90% killing,[17],0.39 µg/mL
same,MBC = μg/ml 99.9% killing,[17],1.56 µg/mL
same,LD 90 = μg/ml 90% killing,E. coli ATCC 35218,3.125 µg/mL
same,MBC = μg/ml 99.9% killing,E. coli ATCC 35218,6.25 µg/mL
same,LD 90 = μg/ml 90% killing,[18],50 µg/mL
same,MBC = μg/ml 99.9% killing,[18],100 µg/mL
same,LD 90 = μg/ml 90% killing,[19],6.25 µg/mL
same,MBC = μg/ml 99.9% killing,[19],25 µg/mL
same,LD 90 = μg/ml 90% killing,[20],6.25 µg/mL
same,MBC = μg/ml 99.9% killing,[20],50 µg/mL
same,LD 90 = μg/ml 90% killing,[21],50 µg/mL
same,MBC = μg/ml 99.9% killing,[21],100 µg/mL
same,LD 90 = μg/ml 90% killing,[22],100 µg/mL
same,MBC = μg/ml 99.9% killing,[22],>100 µg/mL
same,LD 90 = μg/ml 90% killing,[23],100 µg/mL
same,MBC = μg/ml 99.9% killing,[23],>100 µg/mL
same,LD 90 = μg/ml 90% killing,[24],12.5 µg/mL
same,MBC = μg/ml 99.9% killing,[24],50 µg/mL
same,LD 90 = μg/ml 90% killing,[25],12.5 µg/mL
same,MBC = μg/ml 99.9% killing,[25],25 µg/mL
